Test results: paper PMC11899342, “Novel Triazeneindole Antibiotics: Synthesis and Hit-to-Lead Optimization” (International Journal of Molecular Sciences, 2025)

Key:
hERG K+-ion channel = target: T1, hERG K+-ion channel (Homo sapiens, UniProt Q12809); assay: Predictor hERG fluorescence polarization assay; type: binding; conditions: tracer displacement, up to 50 µM
T1 construct: purchased Invitrogen
Protocol: Determination of the binding of the BX-SI043 compound to the hERG K^+-ion channel was carried out using the Predictor hERG Fluorescence Polarization Assay Kit (Invitrogen, USA) at concentrations of 0.016, 0.08, 0.4, 2, 10, and 50 µM, according to the manufacturer’s instructions. This method is based on the measurement of the changing fluorescence polarization caused by the displacement of the high-affinity fluorescent tracer by the tested compound. A selective inhibitor of the hERG channels E-4031 was used as a control compound. Briefly, a 2X solution of membranes, containing hERG channels, was prepared and placed in 384-well plate. The tested substance, the control substance, the buffer, and the tracer were placed in the corresponding wells and incubated in the dark at room temperature for 2 h. Fluorescence polarization measurement was conducted on an Infinite M1000 PRO plate reader with the following parameters: 10 flashes per well; an excitation center wavelength of 530 nm, with a bandwidth of 5 nm; an emission center wavelength of 585 nm, with a bandwidth of […]. The calculation of the IC50 half-maximal inhibition concentration values was performed in GraphPad Prism 6.0 (GraphPad Software Inc.), based on the equations of the experimental curves.

[1] = Stability in rat liver microsomes; type: in vitro ADME; conditions: NADPH
Protocol: (§1) The liver metabolism of the substance was studied in the microsomal fractions of human and rat livers (XenoTech HMMCPL, RTMCPL, Kansas City, KS, USA) in the presence of the cofactor of the oxidative enzymes NADPH (AppliChem, Darmstadt, Germany).
(§2) The plate was incubated in a thermal shaker for 10 min at 400 rpm and 37 °C; then, 2.4 µL of 100× stocks of the tested substance was added into each well. A total of 30 µL of 8× cofactor solution was added to each experimental well (two replicates), 30 µL of deionized water was added to one control well, and all wells were mixed three times using a multichannel pipette with a volume of 100 µL. After mixing, the plate was placed in a thermal shaker at 400 rpm and 37 °C. The reactions were terminated at the following time points—0, 5, 10, 15, 20, and 30 min—by transferring 30 µL of the reaction mixture from the corresponding well to 1.1 mL microtubes and adding 180 µL of acetonitrile with internal standard 200 ng/mL tolbutamide (Fluka, Switzerland). To evaluate the stability of the substance in the microsomes without the cofactor, two aliquots were taken from the control well, and the reactions were terminated at 0 and 30 min time points. […] Then, the samples were centrifuged for 10 min at 1500× g, and 150 μL of the supernatant was taken for UPLC–MS/MS analysis.

[2] = Stability in human plasma; type: in vitro ADME; conditions: 37 °C, 1 μM
Protocol: For the experiment, human and rat plasma (SD) was thawed at room temperature and centrifuged for 5 min at 1500× g. Eucatropine (Sigma-Aldrich, USA), which is unstable in human and rat plasma, was used as a control compound.
For stability evaluation, 3 μL of 100X solutions of the tested or control compound (0.1 mM) was added to 297 μL of the corresponding plasma (prewarmed to 37 °C) to a final concentration of 1 μM. The plasma samples were incubated with the test and control compounds in the 0.65 mL microtubes at 37 °C and under 300 rpm rotation. After 15, 30, 60, and 240 min, 30 μL aliquots were taken into 1.1 mL microtubes with 180 μL of chilled acetonitrile with an internal standard of 200 ng/mL tolbutamide (Fluka). The tubes were stirred and kept at 4 °C for 15 min, then centrifuged at 1500× g for 10 min. A total of 200 μL of the supernatants was transferred into microtubes and stored at −70 °C until UPLC–MS/MS analysis.

[3] = Stability in human liver microsomes; type: in vitro ADME
Protocol: as §1, §2

T1 sequence (Q12809 whole entry): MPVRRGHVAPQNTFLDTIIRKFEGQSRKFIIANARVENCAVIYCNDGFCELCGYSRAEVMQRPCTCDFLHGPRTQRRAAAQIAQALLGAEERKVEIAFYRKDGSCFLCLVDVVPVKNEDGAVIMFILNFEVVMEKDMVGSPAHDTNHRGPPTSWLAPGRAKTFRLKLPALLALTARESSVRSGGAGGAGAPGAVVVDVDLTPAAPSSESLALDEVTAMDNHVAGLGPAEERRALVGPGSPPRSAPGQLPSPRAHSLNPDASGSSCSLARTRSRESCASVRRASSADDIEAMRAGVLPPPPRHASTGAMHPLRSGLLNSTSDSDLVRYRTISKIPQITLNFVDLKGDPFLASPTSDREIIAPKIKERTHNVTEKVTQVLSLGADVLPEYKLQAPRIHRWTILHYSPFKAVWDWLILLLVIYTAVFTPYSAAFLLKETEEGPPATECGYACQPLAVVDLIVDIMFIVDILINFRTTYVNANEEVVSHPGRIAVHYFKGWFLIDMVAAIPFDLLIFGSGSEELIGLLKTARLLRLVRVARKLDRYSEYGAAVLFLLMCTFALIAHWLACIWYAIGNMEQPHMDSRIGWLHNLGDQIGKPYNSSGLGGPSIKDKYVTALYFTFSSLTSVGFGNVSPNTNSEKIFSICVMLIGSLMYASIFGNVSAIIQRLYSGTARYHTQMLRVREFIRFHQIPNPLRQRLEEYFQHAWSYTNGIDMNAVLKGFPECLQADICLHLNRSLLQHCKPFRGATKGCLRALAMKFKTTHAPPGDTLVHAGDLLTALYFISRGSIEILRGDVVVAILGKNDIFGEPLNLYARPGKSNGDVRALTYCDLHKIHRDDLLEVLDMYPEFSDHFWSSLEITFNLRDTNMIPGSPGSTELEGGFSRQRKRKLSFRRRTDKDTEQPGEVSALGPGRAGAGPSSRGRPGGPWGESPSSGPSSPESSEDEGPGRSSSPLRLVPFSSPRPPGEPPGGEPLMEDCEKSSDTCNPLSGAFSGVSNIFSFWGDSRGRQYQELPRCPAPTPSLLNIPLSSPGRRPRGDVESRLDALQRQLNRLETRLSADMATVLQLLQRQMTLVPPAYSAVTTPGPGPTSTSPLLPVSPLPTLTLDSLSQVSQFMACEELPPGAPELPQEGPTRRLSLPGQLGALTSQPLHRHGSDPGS

CCOC(=O)c1[nH]c2cc(F)ccc2c1/N=N/N1CCCC1 [BX-SI043, Ethyl (E)-6-fluoro-3-(pyrrolidin-1-yldiazenyl)-1H-indole-2-carboxylate]
IC50 (hERG K+-ion channel): > 50 µM
microsomal CLint ([1]; pH 7.4, rat liver microsomes): 2140 µL/min/mg
Remaining after 30 min ([1]; rat liver microsomes): 0.00%
t1/2 ([1]; rat liver microsomes, listed as ВХSI043): 1.30 min
half-life ([1]; rat, liver microsomes, pH 7.4, rat liver microsomes): 1.4 min
metabolized in human plasma after 1 h ([2]; 1 h): about 50%
metabolized in human plasma after 4 h ([2]; 4 h): 97%
Remaining after 30 min ([3]; NADPH): 0.00%
half-life ([3]; pH 7.4, NADPH): 2.73 min
microsomal CLint ([3]; pH 7.4, NADPH): 1020 µL/min/mg
